For 6 molecules, Control value results are on record in patent publication US8802593B2 (priority 2009, dated 2014).

Type in all cases: in vivo
Assay [1] relates to Fusarium graminearum. Particulars: corn (Pioneer) seeds; QoI alone 10 g per 100 kg seeds; 15° C. for 15 days; seedling emergence.
For assay [2], the system named is Fusarium avenaceum. The experiment in a line: Test Example 4: seed treatment of corn, soil with Fusarium avenaceum, control value. Particulars: corn (Pioneer) seeds; azoxystrobin alone 10 g per 100 kg seeds; 15° C. for 15 days; seedling emergence. How it is done:
A DMSO solution of the compound I and a DMSO solution of azoxystrobin were respectively prepared. These solutions were mixed to prepare a DMSO solution containing predetermined concentrations of the compound I and azoxystrobin. Twenty-five (25) μL of each of the DMSO solution and 10 g of seeds of corn (Pioneer) were mixed by shaking in a 50-ml conical tube and then allowed to stand overnight to prepare treated seeds. A plastic pot was filled with sandy soil and the treated seeds were sown on it and then covered with sandy soil which had been mixed with a bran culture of Fusarium avenaceum. The sown seeds were watered and then cultured in a greenhouse at 15° C. for 15 days. The number of emerged seedlings was checked and the incidence of disease was calculated by Equation 4.
For comparison, a DMSO solution containing a predetermined concentration of azoxystrobin was prepared and subjected to the same test and then the incidence of disease was determined.
(§1) In order to calculate a control value, the same test was conducted in which the plants had been treated with none of the test compounds and the incidence of disease was determined.
The control value was calculated by the Equation 2 based on the incidence of disease thus determined.

The subject of assay [3] is Fusarium solani f. sp. pisi. The experiment in a line: Test Example 1: seed treatment of pea, pea root rot, control value. Particulars: Pisum sativum L seeds, Compound I 0, pea root rot after 16 days. As to the method: A DMSO solution of the compound I and a DMSO solution of the compound (1b) were respectively prepared. These solutions were mixed to prepare a DMSO solution containing predetermined concentrations of the compound I and the compound (1b). Ten (10) μL of the DMSO solution and 10 g of seeds of Pisum sativum L were mixed by shaking in a 50-ml conical tube and then allowed to stand overnight to prepare treated seeds. A plastic pot was filled with sandy soil and the treated seeds were sown on it and then covered with sandy soil which had been mixed with a bran culture of Fusarium solani f. sp. pisi. The sown seeds were watered and then cultured in a greenhouse at 20 to 24° C. […] After 16 days, the occurrence of pea root rot diseases was checked and the incidence of disease was calculated by Equation 1.
For comparison, a DMSO solution containing a predetermined concentration of the compound (1b) was prepared and subjected to the same test and then the incidence of disease was determined.
as §1
(§2) The control value was calculated by the Equation 2 based on the incidence of disease thus determined. […]

The subject of assay [4] is wheat leaf rust. The experiment in a line: Test Example 2: foliar spray on wheat, wheat leaf rust, control value. Particulars: wheat (SHIROGANEKOMUGI) leaf spray, Compound I 0, 8 days at 23° C. How it is done: A plastic pot was filled with sandy soil and seeds of wheat (SHIROGANEKOMUGI) were sown on it, followed by cultivation in a greenhouse for 10 days. A wettable powder of the compound I was prepared by mixing 10 parts of the compound I, 35 parts of a mixture of white carbon and a polyoxyethylene alkyl ether sulfate ammonium salt (weight ratio of 1:1) and 55 parts of […], followed by grinding the mixture. A wettable powder of the compound (1b) was prepared by mixing 10 parts of the compound (1b), 35 parts of a mixture of white carbon and a polyoxyethylene alkyl ether sulfate ammonium salt (weight ratio of 1:1) and 55 parts of […], followed by grinding the mixture. […] After allowing to stand overnight at 23° C. under high humidity followed by cultivation in an artificial climate laboratory at 23° C. for 8 days, leaf area and lesion area of the wheat leaves were checked and the incidence of disease was calculated by Equation 3. […]
as §1, §2

Consider `COC(=O)N(OC)c1ccccc1COc1ccn(-c2ccc(Cl)cc2)n1` [pyraclostrobin], for which, in assay [1], the Control value stood at 83.
The molecule `CO/C=C(/C(=O)OC)c1ccccc1Oc1cc(Oc2ccccc2C#N)ncn1` [azoxystrobin] yielded a Control value in assay [2] of 67.
`COC(=O)NCc1cc(/C(C)=N/OCc2cccc(C)n2)ccc1Cl` [pyribencarb] came in with a Control value in assay [1] of 83.
Still for that read-out and setting: with `CON=C(C(=O)OC)c1ccccc1CON=C(C)c1cccc(C(F)(F)F)c1` [trifloxystrobin] the figure was 83; with `CO/N=C(/C(=O)OC)c1ccccc1COc1ccccc1C` [kresoxim-methyl], 67.
On to `CNC(=O)C(OC)c1ccccc1COc1cc(C)ccc1C` (racemic) [Compound (1b)], for which the Control value in assay [3] (Compound (1b) 1 g/100 kg seeds) was found to be 64; in assay [3] (Compound (1b) 5 g/100 kg seeds) it was 64; in assay [1], 83; in assay [4] (Compound (1b) 10 ppm), 50; in assay [4] (Compound (1b) 20 ppm), 81.
